In patent US20130150363A1, “Method of Treating Cancer Using a cMET and AXL Inhibitor and an ErbB Inhibitor” (GlaxoSmithKline, priority 2008, published 2013):

Legend:
Format in all cases: cell-based
[1] = test system: HN5C12 (HN5C2) lapatinib resistant head and neck carcinoma cells; experiment: Cell growth inhibition (CellTiter-Glo), HN5C12; details: Homo sapiens, 72 h, 3 days
Source text: (§1) Esophageal carcinoma cell line OE33 was purchased from ECACC European Collection of Cell Cultures (UK). Breast cancer cell line JIMT-1 and gastric carcinoma cell line MKN-45 were purchased from Deutsche Sammlung von Mikroorganismen and Zellkulturen GmbH (Germany); KPL-4, a human breast cancer cell line was kindly provided by Prof. J Kurebayashi (Kawasaki Medical School, Kurashiki, Japan). […] The LICR-LON-HN5 head and neck carcinoma cell line (HN5) was a gift from the Institute of Cancer Research, Surrey, U.K. HN5C12 was developed by single-cell cloning of HN5 followed by exposure to increasing concentrations of lapatinib. […] Cell growth inhibition was determined via CellTiter-Glo cell viability assays. […] BT474-J4 and HN5C12 were washed with PBS and plated in their culture media without lapatinib. […] ATP levels were determined by adding Cell Titer Glo0 (Promega), incubating for 20 minutes then the luminescent signal was read on the SpectraMax M5 plate with a 0.5 second integration time. Cell growth was calculated relative to vehicle (DMSO) treated control wells. […] y=([…]) where A is the minimum response (ymin), B is the maximum response (ymax), c is the inflection point of the curve (EC50), d is the Hill coefficient, and x is the log10 compound concentration (moles/L). CI values were calculated with the interpolated IC50 values and the mutually non-exclusive equation derived by Chou and […](a)+Db/IC50(b)+(Da×Db)/(IC50(a)×IC50(b)) where IC50(a) is the IC50 of the inhibitor A; IC50(b) is the IC50 for the inhibitor B; […] Excess Over Highest Single Agent (EOHSA) is defined as a statistically significant improvement in the combination compared to the component monotherapies. […] See Borisy et al. (2003) or Hung et al. (1993) for examples and discussion. Analysis was conducted using two-factor analysis of variance with interaction (model terms were dose of drug A, dose of drug B, and interaction between doses of drug A and B), followed by linear contrasts between each combination group and corresponding monotherapies. Analysis was conducted using SAS (version 9, provided by SAS Institute, Cary, N.C.). EOHSA at each dose was calculated as the minimum difference in average % inhibition between the combination and each monotherapy, from the appropriate ANOVA contrast. Since there are many comparisons for the % inhibition endpoint, p-value adjustment for multiple comparisons was performed. Hommel's procedure was implemented in order to improve the power while retaining […] Error Rate (FWE) control by using a sequentially rejective method. The p-values for both synergy and antagonism were calculated using this adjustment.

[2] = test system: NCI-H2342 lung carcinoma cells; experiment: Cell growth inhibition (CellTiter-Glo), NCI-H2342; details: Homo sapiens, NCI-H2342, 72 h, 3 days
Source text: as §1

[3] = test system: HOP-92 lung carcinoma cells; experiment: Cell growth inhibition (CellTiter-Glo), HOP-92; details: Homo sapiens, HOP-92, 72 h, 3 days
Source text: as §1

[4] = test system: NCI-H2170 lung carcinoma cells; experiment: Cell growth inhibition (CellTiter-Glo), NCI-H2170; details: Homo sapiens, NCI-H2170, 72 h, 3 days
Source text: as §1

[5] = test system: NCI-H1993 lung carcinoma cells; experiment: Cell growth inhibition (CellTiter-Glo), NCI-H1993; details: Homo sapiens, NCI-H1993, 72 h, 3 days
Source text: as §1

[6] = test system: NCI-H69 lung carcinoma cells; experiment: Cell growth inhibition (CellTiter-Glo), NCI-H69; details: Homo sapiens, NCI-H69, 72 h, 3 days
Source text: as §1

ovary_SKOV3 tumor cells = experiment: Cell growth inhibition (CellTiter-Glo), SKOV3; details: Homo sapiens, SK-OV-3, 72 h, 3 days
Protocol: Cell growth inhibition was determined via CellTiter-Glo cell viability assays. […] BT474-J4 and HN5C12 were washed with PBS and plated in their culture media without lapatinib. […] ATP levels were determined by adding Cell Titer Glo0 (Promega), incubating for 20 minutes then the luminescent signal was read on the SpectraMax M5 plate with a 0.5 second integration time. Cell growth was calculated relative to vehicle (DMSO) treated control wells. […] y=([…]) where A is the minimum response (ymin), B is the maximum response (ymax), c is the inflection point of the curve (EC50), d is the Hill coefficient, and x is the log10 compound concentration (moles/L). CI values were calculated with the interpolated IC50 values and the mutually non-exclusive equation derived by Chou and […](a)+Db/IC50(b)+(Da×Db)/(IC50(a)×IC50(b)) where IC50(a) is the IC50 of the inhibitor A; IC50(b) is the IC50 for the inhibitor B; […] Excess Over Highest Single Agent (EOHSA) is defined as a statistically significant improvement in the combination compared to the component monotherapies. […] In statistical terms, the maximum of the p-value's for the two comparisons Aq+Br vs Aq and Aq+Br vs Br should be less than or equal to an appropriate cutoff, p≦0.05. EOHSA is a common approach for evaluating drug combinations, and is an FDA criterion (21 CRF 300.50) for combination drug approval. See Borisy et al. (2003) or Hung et al. (1993) for examples and discussion. Analysis was conducted using two-factor analysis of variance with interaction (model terms were dose of drug A, dose of drug B, and interaction between doses of drug A and B), followed by linear contrasts between each combination group and corresponding monotherapies. Analysis was conducted using SAS (version 9, provided by SAS Institute, Cary, N.C.). EOHSA at each dose was calculated as the minimum difference in average % inhibition between the combination and each monotherapy, from the appropriate ANOVA contrast. Since there are many comparisons for the % inhibition endpoint, p-value adjustment for multiple comparisons was performed. Hommel's procedure was implemented in order to improve the power while retaining […] Error Rate (FWE) control by using a sequentially rejective method. The p-values for both synergy and antagonism were calculated using this adjustment.

| SMILES | IC50 ([1]; hn_HN5C2, +HGF (2 ng/mL)) | IC50 ([1]; hn_HN5C2, −HGF) | IC50 ([2]; lung_H2342, +HGF (2 ng/mL)) | IC50 ([2]; lung_H2342, −HGF) | IC50 ([3]; lung_HOP-92, +HGF (2 ng/mL)) | IC50 ([3]; lung_HOP-92, −HGF) | IC50 ([4]; lung_H2170, +HGF (2 ng/mL)) | IC50 ([4]; lung_H2170, −HGF) | IC50 ([5]; lung_H1993, +HGF (2 ng/mL)) | IC50 ([5]; lung_H1993, −HGF) | IC50 ([6]; lung_H69, +HGF (2 ng/mL)) | IC50 ([6]; lung_H69, −HGF) | IC50 (ovary_SKOV3 tumor cells; ovary_SKOV3, +HGF (2 ng/mL)) | IC50 (ovary_SKOV3 tumor cells; ovary_SKOV3, −HGF) |
| --- | --- | --- | --- | --- | --- | --- | --- | --- | --- | --- | --- | --- | --- | --- |
| C#Cc1cccc(Nc2ncnc3cc(OCCOC)c(OCCOC)cc23)c1 [Erlotinib, N-(3-ethynylphenyl)-6,7-bis{[2-(methyloxy)ethyl]oxy}-4-quinazolinamine] | > 10 µM | > 10 µM | > 10 µM | > 10 µM | > 10 µM | > 10 µM | 7.74 µM | 1.28 µM | > 10 µM | 8.13 µM | > 10 µM | > 10 µM | 5.39 µM | 5.62 µM |
| CS(=O)(=O)CCNCc1ccc(-c2ccc3ncnc(Nc4ccc(OCc5cccc(F)c5)c(Cl)c4)c3c2)o1 [Lapatinib, N-(3-chloro-4-{[(3-fluorophenyl)methyl]oxy}phenyl)-6-[5-({[2-(methylsulfonyl)ethyl]amino}methyl)-2-furanyl]-4-quinazolinamine] | 3.85 µM | 4.12 µM | 6.64 µM | 6.81 µM | > 10 µM | > 10 µM | 4.24 µM | 0.26 µM | > 10 µM | > 10 µM | 4.74 µM | 5.36 µM | 5.67 µM | 5.02 µM |
